# Measured values reported in patent US20230391768A2, “IMIDAZOPYRIDINE DERIVATIVES AND AZA-IMIDAZOPYRIDINE DERIVATIVES AS JANUS KINASE 2 INHIBITORS AND USES THEREOF” (Dana-Farber Cancer Institute, Inc., priority 2018, published 2023).
# Tests used:
# Assay in all cases: KINOMEscan
# Format in all cases: binding
# Settings in all cases: read-out: percent of control
# TNK1 = TNK1 (Homo sapiens (Human), UniProt Q13470)
# Description: (§1) In vitro profiling of Compound I-2 (1 μM) was performed using the DiscoveRx KINOMEscan® platform.
# CSF1R-autoinhibited = CSF1R-autoinhibited (Homo sapiens (Human), UniProt P07333)
# Description: as §1
# ACVR2B = ACVR2B (Homo sapiens (Human), UniProt Q13705)
# Description: as §1
# PAK4 = PAK4 (Homo sapiens (Human), UniProt O96013)
# Description: as §1
# TNNI3K = TNNI3K (Homo sapiens (Human), UniProt Q59H18)
# Description: as §1
# CASK = CASK (Homo sapiens (Human), UniProt O14936)
# Description: as §1
# NEK3 = NEK3 (Homo sapiens (Human), UniProt P51956)
# Description: as §1
# CAMK1 = CAMK1 (Homo sapiens (Human), UniProt Q14012)
# Description: as §1
# HIPK1 = HIPK1 (Homo sapiens (Human), UniProt Q86Z02)
# Description: as §1
# CDK4-cyclinD1 = CDK4-cyclinD1 (Homo sapiens (Human), UniProt P11802)
# Description: as §1
# RET (V804L) = RET (V804L) (Homo sapiens (Human), UniProt P07949, V804L)
# Description: as §1
# ACVR1B = ACVR1B (Homo sapiens (Human), UniProt P36896)
# Description: as §1
# EGFR(G719C) = EGFR(G719C) (Homo sapiens (Human), UniProt P00533, G719C)
# Description: as §1
# [1] = biological target: ABL1(F317L)-nonphosphorylated (Homo sapiens (Human), UniProt P00519, F317L)
# Description: as §1
# [2] = biological target: ABL1(F317I)-phosphorylated (Homo sapiens (Human), UniProt P00519, F317I)
# Description: as §1
# TGFBR1 = TGFBR1 (Homo sapiens (Human), UniProt P36897)
# Description: as §1
# NEK5 = NEK5 (Homo sapiens (Human), UniProt Q6P3R8)
# Description: as §1
# CDK3 = CDK3 (Homo sapiens (Human), UniProt Q00526)
# Description: as §1
# FLT3-autoinhibited = FLT3-autoinhibited (Homo sapiens (Human), UniProt P36888)
# Sequence of FLT3-autoinhibited (P36888 564-993 limits assumed): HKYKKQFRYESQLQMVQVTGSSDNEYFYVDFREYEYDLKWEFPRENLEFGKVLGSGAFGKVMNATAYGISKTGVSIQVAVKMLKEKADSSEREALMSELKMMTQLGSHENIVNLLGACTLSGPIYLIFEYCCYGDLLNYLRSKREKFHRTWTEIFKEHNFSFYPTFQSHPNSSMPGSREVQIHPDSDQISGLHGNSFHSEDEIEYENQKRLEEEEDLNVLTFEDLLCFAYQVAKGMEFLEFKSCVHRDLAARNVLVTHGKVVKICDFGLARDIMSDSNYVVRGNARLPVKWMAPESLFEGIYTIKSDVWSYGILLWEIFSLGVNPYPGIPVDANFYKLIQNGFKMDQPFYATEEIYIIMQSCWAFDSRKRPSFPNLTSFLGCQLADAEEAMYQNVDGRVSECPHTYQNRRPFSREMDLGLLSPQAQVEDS
# Description: as §1
# CDKL5 = CDKL5 (Homo sapiens (Human), UniProt O76039)
# Description: as §1
# [3] = biological target: RSK2 (Kin.Dom.1-N-terminal) (Homo sapiens (Human), UniProt P51812)
# Description: as §1
# PIK3CB = PIK3CB (Homo sapiens (Human), UniProt P42338)
# Sequence of PIK3CB (P42338 whole entry): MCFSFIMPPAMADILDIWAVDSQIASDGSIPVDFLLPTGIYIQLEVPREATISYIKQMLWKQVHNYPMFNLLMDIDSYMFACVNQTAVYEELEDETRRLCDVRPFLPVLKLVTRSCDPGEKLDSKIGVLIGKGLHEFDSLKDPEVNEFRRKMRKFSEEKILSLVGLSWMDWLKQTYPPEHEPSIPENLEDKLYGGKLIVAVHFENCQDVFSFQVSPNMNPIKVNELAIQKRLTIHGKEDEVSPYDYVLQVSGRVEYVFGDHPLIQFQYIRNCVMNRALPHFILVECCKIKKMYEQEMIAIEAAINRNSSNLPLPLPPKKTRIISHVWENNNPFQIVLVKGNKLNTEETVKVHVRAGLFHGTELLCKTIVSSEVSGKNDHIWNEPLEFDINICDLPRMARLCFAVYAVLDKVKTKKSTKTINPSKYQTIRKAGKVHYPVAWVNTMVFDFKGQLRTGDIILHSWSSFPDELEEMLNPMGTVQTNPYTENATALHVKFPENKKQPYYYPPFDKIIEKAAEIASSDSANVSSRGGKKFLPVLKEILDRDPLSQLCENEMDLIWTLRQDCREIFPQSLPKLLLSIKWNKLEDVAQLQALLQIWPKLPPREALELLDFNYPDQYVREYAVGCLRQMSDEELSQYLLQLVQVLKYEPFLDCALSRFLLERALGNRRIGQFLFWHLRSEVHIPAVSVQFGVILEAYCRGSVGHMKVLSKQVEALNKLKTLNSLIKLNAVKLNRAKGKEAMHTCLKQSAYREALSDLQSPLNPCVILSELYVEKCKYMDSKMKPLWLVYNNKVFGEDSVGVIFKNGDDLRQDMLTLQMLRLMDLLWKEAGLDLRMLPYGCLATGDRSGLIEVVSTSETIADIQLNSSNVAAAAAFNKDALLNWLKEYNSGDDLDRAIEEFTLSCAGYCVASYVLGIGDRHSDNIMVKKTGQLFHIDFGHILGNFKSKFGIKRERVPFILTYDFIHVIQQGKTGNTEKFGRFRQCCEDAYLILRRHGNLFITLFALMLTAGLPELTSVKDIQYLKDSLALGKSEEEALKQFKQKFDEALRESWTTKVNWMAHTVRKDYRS
# Description: as §1
# PIK3CA(E545A) = PIK3CA(E545A) (Homo sapiens (Human), UniProt P42336, E545A)
# Sequence of PIK3CA(E545A) (P42336 whole entry E545A): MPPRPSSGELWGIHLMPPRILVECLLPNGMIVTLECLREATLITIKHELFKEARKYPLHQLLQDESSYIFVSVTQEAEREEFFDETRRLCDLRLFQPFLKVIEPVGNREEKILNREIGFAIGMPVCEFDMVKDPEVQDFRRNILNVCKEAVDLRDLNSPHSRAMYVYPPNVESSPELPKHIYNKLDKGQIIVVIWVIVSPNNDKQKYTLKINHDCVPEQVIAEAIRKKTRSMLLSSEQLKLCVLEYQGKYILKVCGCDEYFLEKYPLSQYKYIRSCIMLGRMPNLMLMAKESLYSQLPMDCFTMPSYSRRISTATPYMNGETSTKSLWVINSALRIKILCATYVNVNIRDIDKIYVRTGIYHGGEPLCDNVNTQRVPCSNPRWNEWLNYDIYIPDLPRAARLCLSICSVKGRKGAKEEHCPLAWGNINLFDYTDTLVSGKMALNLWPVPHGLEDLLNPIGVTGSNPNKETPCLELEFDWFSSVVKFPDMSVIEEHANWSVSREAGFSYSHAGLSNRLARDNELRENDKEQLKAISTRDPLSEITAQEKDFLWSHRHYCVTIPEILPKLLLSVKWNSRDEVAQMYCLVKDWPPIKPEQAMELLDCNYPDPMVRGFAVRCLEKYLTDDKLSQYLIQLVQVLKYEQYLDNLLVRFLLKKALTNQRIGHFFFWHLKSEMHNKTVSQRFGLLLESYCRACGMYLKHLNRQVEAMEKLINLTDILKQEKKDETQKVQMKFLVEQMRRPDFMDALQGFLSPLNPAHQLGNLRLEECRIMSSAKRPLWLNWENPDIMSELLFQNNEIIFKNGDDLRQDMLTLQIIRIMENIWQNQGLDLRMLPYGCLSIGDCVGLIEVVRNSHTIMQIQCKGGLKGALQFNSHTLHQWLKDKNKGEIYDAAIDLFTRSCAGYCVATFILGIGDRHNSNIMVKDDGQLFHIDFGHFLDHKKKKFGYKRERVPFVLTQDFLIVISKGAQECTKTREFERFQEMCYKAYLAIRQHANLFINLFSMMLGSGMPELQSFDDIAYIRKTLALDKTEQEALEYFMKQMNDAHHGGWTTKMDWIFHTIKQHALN
# Description: as §1
# TNIK = TNIK (Homo sapiens (Human), UniProt Q9UKE5)
# Description: as §1
# MET = MET (Homo sapiens (Human), UniProt P08581)
# Description: as §1
# ARK5 = ARK5 (Homo sapiens (Human), UniProt O60285)
# Sequence of ARK5 (O60285 whole entry): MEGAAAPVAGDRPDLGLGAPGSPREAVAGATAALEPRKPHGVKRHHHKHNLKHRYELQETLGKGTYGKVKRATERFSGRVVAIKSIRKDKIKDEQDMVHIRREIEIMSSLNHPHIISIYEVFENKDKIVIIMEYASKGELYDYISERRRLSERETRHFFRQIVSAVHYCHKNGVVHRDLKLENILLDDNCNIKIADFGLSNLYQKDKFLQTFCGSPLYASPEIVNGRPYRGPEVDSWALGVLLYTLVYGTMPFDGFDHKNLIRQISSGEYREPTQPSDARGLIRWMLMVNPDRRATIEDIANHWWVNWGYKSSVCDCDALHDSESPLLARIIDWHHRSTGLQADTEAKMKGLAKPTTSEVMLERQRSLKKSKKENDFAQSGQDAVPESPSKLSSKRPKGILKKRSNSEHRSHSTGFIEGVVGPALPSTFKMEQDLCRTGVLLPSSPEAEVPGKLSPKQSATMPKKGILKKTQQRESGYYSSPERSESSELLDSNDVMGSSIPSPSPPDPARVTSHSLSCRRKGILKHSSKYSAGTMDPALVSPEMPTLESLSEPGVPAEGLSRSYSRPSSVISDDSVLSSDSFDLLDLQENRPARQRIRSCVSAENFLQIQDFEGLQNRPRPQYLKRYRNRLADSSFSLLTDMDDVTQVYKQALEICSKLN
# Description: as §1
# MINK = MINK (Homo sapiens (Human), UniProt Q8N4C8)
# Description: as §1
# ZAK = ZAK (Homo sapiens (Human), UniProt Q9NYL2)
# Sequence of ZAK (Q9NYL2 whole entry): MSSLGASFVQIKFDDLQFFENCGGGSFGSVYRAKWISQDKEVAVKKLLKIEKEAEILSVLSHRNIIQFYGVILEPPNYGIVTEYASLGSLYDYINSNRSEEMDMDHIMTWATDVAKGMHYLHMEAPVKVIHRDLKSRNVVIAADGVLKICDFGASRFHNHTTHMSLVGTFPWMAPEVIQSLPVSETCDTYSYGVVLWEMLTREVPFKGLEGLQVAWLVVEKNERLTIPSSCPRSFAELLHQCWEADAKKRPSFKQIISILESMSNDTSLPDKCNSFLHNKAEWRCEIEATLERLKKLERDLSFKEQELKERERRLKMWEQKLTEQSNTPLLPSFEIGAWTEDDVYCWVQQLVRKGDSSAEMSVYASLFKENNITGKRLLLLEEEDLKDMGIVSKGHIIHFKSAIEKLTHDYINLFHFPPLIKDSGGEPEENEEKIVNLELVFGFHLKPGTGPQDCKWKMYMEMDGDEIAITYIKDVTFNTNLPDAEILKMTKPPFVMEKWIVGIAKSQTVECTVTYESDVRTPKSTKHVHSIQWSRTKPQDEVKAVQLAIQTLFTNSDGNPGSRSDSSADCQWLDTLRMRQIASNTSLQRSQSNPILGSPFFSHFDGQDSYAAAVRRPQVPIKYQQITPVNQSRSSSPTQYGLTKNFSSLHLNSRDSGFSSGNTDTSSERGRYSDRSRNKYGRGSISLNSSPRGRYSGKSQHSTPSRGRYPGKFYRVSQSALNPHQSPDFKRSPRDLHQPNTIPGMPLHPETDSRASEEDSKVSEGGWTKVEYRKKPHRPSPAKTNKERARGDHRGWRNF
# Description: as §1
# BRSK2 = BRSK2 (Homo sapiens (Human), UniProt Q8IWQ3)
# Description: as §1
# LTK = LTK (Homo sapiens (Human), UniProt P29376)
# Sequence of LTK (P29376 17-864): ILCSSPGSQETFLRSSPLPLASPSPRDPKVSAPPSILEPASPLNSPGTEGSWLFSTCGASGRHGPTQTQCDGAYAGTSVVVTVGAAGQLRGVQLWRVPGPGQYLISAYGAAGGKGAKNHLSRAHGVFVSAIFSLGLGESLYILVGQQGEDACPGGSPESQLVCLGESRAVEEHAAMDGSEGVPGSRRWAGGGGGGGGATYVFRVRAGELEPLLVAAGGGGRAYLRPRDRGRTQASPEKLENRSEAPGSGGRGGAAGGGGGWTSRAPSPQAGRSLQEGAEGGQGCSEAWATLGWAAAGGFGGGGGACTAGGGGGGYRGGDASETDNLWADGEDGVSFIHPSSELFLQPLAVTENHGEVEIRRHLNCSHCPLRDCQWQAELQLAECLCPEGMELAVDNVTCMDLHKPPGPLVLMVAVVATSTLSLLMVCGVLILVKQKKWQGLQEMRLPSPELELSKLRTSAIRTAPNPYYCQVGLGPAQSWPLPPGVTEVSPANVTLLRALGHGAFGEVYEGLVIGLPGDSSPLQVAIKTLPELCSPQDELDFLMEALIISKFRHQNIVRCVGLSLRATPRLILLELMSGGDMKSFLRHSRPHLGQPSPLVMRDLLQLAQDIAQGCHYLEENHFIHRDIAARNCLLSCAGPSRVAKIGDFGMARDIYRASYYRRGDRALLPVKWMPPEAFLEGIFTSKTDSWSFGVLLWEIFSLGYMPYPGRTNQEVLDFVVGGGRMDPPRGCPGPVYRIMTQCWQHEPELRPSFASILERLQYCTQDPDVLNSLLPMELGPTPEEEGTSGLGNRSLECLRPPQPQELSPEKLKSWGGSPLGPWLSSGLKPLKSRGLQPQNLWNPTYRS
# Description: as §1
# PIP5K1A = PIP5K1A (Homo sapiens (Human), UniProt Q99755)
# Description: as §1
# ULK3 = ULK3 (Homo sapiens (Human), UniProt Q6PHR2)
# Description: as §1
# ASK2 = ASK2 (Homo sapiens (Human), UniProt O95382)
# Description: as §1
# GRK3 = GRK3 (Homo sapiens (Human), UniProt P35626)
# Description: as §1
# PIK3CA(H1047L) = PIK3CA(H1047L) (Homo sapiens (Human), UniProt P42336, H1047L)
# Sequence of PIK3CA(H1047L) (P42336 whole entry H1047L): as the sequence (P42336 whole entry E545A) above, with A545E, H1047L counted along it
# Description: as §1
# [4] = biological target: ABL1(H396P)-phosphorylated (Homo sapiens (Human), UniProt P00519, H396P)
# Description: as §1
# TESK1 = TESK1 (Homo sapiens (Human), UniProt Q15569)
# Description: as §1
# ROS1 = ROS1 (Homo sapiens (Human), UniProt P08922)
# Description: as §1
SMILES,remaining binding at 1 µM (TNK1),remaining binding at 1 µM (CSF1R-autoinhibited),remaining binding at 1 µM (ACVR2B),remaining binding at 1 µM (PAK4),remaining binding at 1 µM (TNNI3K),remaining binding at 1 µM (CASK),remaining binding at 1 µM (NEK3),remaining binding at 1 µM (CAMK1),remaining binding at 1 µM (HIPK1),remaining binding at 1 µM (CDK4-cyclinD1),remaining binding at 1 µM (RET (V804L)),remaining binding at 1 µM (ACVR1B),remaining binding at 1 µM (EGFR(G719C)),remaining binding at 1 µM [1],remaining binding at 1 µM [2],remaining binding at 1 µM (TGFBR1),remaining binding at 1 µM (NEK5),remaining binding at 1 µM (CDK3),remaining binding at 1 µM (FLT3-autoinhibited),remaining binding at 1 µM (CDKL5),further results
"CCN1CCN(Cc2cc(NC(=O)c3ccc(C)c(-c4ccc5nc(NC(=O)C6CC6)cn5n4)c3)cc(C(F)(F)F)c2)CC1 [Compound I-2, 3-(2-(cyclopropanecarboxamido)imidazo[1,2-b]pyridazin-6-yl)-N-(3-((4-ethylpiperazin-1-yl)methyl)-5-(trifluoromethyl)phenyl)-4-methylbenzamide]",63%,25%,96%,96%,56%,86%,100%,92%,62%,19%,0.15%,99%,53%,0%,5.1%,94%,89%,5.7%,56%,95%,remaining binding at 1 µM [3]: 88%; remaining binding at 1 µM (PIK3CB): 100%; remaining binding at 1 µM (PIK3CA(E545A)): 91%; remaining binding at 1 µM (TNIK): 16%; remaining binding at 1 µM (MET): 9.7%; remaining binding at 1 µM (ARK5): 94%; remaining binding at 1 µM (MINK): 0.6%; remaining binding at 1 µM (ZAK): 2.3%; remaining binding at 1 µM (BRSK2): 93%; remaining binding at 1 µM (LTK): 3.3%; remaining binding at 1 µM (PIP5K1A): 100%; remaining binding at 1 µM (ULK3): 97%; remaining binding at 1 µM (ASK2): 99%; remaining binding at 1 µM (GRK3): 87%; remaining binding at 1 µM (PIK3CA(H1047L)): 89%; remaining binding at 1 µM [4]: 0.3%; remaining binding at 1 µM (TESK1): 100%; remaining binding at 1 µM (ROS1): 52%
"CCN1CCN(Cc2cc(NC(=O)c3ccc(C)c(-c4ccc5nc(NC(=O)C6CC6)cn5c4)c3)cc(C(F)(F)F)c2)CC1 [Compound I-6, 3-(2-(cyclopropanecarboxamido)imidazo[1,2-a]pyridin-6-yl)-N-(3-((4-ethylpiperazin-1-yl)methyl)-5-(trifluoromethyl)phenyl)-4-methylbenzamide]",31%,49%,100%,96%,36%,85%,96%,95%,96%,17%,0%,94%,46%,0%,9.4%,100%,100%,40%,58%,100%,remaining binding at 1 µM [3]: 78%; remaining binding at 1 µM (PIK3CB): 94%; remaining binding at 1 µM (PIK3CA(E545A)): 100%; remaining binding at 1 µM (TNIK): 14%; remaining binding at 1 µM (MET): 14%; remaining binding at 1 µM (ARK5): 100%; remaining binding at 1 µM (MINK): 2.4%; remaining binding at 1 µM (ZAK): 6.2%; remaining binding at 1 µM (BRSK2): 71%; remaining binding at 1 µM (LTK): 2%; remaining binding at 1 µM (PIP5K1A): 100%; remaining binding at 1 µM (ULK3): 100%; remaining binding at 1 µM (ASK2): 64%; remaining binding at 1 µM (GRK3): 90%; remaining binding at 1 µM (PIK3CA(H1047L)): 68%; remaining binding at 1 µM [4]: 0.25%; remaining binding at 1 µM (TESK1): 97%; remaining binding at 1 µM (ROS1): 59%
